{
  "source": "patent US11634425B2",
  "about": "“Pharmaceutical compounds” (priority 2019, dated 2023)",
  "key": {"in vitro [1]": {"assay": "in vitro", "format": "in vitro ADME", "settings": "hepatocytes, 3 μM compound, read-out: Liver Hepatocyte Stability t1/2", "procedure": "Compounds were subjected to the following assays to investigate liver microsomal stability and hepatocyte stability.\nHepatocyte Incubation: Experimental Procedure\nCryopreserved pooled hepatocytes were purchased from a reputable commercial supplier and stored in liquid nitrogen prior to use. Williams E media supplemented with 2 mM L-glutamine and 25 mM HEPES and test compound (final substrate concentration 3 μM; final DMSO concentration 0.25%) are pre-incubated at 37° C. prior to the addition of a suspension of cryopreserved hepatocytes (final cell density 0.5×10^6 viable cells/mL in Williams E media supplemented with 2 mM L-glutamine and 25 mM HEPES) to initiate the reaction. The final incubation volume is 500 μL. Two control compounds were included with each species, alongside appropriate vehicle control. The reactions are stopped by transferring 50 μL of incubate to 100 μL acetonitrile containing internal standard at the appropriate time points. Samples were removed at 6 time points (0, 5, 15, 30, 45 and 60 min) over the course of a 60 min experiment. The termination plates are centrifuged at 2500 rpm at 4° C. for 30 min to precipitate the protein. Following protein precipitation, the sample supernatants were combined in cassettes of up to 4 compounds and analysed using generic LC-MS/MS conditions. From a plot of ln peak area ratio (compound peak area/internal standard peak area) against time, the gradient of the line is determined. Subsequently, half-life (t1/2) and intrinsic clearance (CLint) were calculated."}, "in vitro [2]": {"assay": "in vitro", "format": "in vitro ADME", "settings": "microsomes, pH 7.4, 1 μM compound, 0.5 mg/mL protein, read-out: Liver Microsomal Stability t1/2", "method_in_brief": "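Pooled liver microsomes (0.5 mg/mL protein) in 0.1 M phosphate pH 7.4 with 1 μM compound and 1 mM NADPH at 37° C., sampled at 0–45 min; minus-NADPH control at 45 min. Acetonitrile quench, LC-MS/MS; t1/2 and CLint from ln peak-area ratio vs time slope.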"}, "Cell cytotoxicity (CC50)": {"assay": "Cell cytotoxicity (CC50)", "format": "cell-based", "settings": "human; mean of at least two experiments", "method_in_brief": "(§1)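 Values are means of ≥2 independent runs, rounded to whole units, from 4-parameter variable-slope curve fits. Toxicity measured in Hep-G2 cells run alongside RSV plaque-reduction assays.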"}, "in vivo": {"assay": "in vivo", "format": "in vivo, rat (Sprague Dawley)", "settings": "male SD rat; for Vd / clearance / Cmax / half-life / AUC(0-t): Sprague Dawley, in vivo; for Cmax / C 8 h: IV 1 mg/kg / PO 10 mg/kg study; for AUC(0-t): read-out: PO AUClast", "procedure": "The pharmacokinetics of compounds were studied in vivo in rats at doses of 1 mg/kg (IV) and 10 mg/kg (PO).\nMale rats [Sprague Dawley (SD)] surgically prepared with a jugular vein cannula were treated with experimental compounds via intravenous administration (IV; n=3; 1 mg/kg) or oral administration (PO; n=3; 10 mg/kg). Compounds were formulated as a solution in 40:60 dimethylacetamide:saline (IV administration) and a solution of 10% DMSO, 20% cremaphor in water (70%) (PO administration). […] Serial blood samples were collected via the cannula at 0.02, 0.08, 0.25, 0.5, 1, 2, 4, 6, 8 and 24 h post IV dosing of compound, and at 0.08, 0.25, 0.5, 1, 2, 4, 6, 8 and 24 h post oral dosing of compound, and plasma was prepared by centrifugation and stored immediately at −80° C. Samples were subsequently thawed, prepared for analysis by protein precipitation with acetonitrile, and analysed by tandem LCMS using electrospray ionisation using a matrix-matched calibration curve. PK parameters were calculated from the resulting data."}, "RSV A2": {"test_system": "RSV A2", "assay": "RSV plaque reduction assay", "format": "cell-based, respiratory syncytial virus (RSV)", "settings": "mean of at least two experiments", "method_in_brief": "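RSV A2 at 100 PFU/well was premixed with eight compound dilutions and added to confluent Hep-G2 monolayers for 2 h at 37 °C. Cells were then kept 2 days under a DMEM/2% FBS/0.8% CMC overlay containing compound. Immunostained plaques were counted relative to virus controls, and EC50 came from 4-parameter fits, averaged over at least two experiments.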"}, "Hep-G2 cells": {"test_system": "Hep-G2 cells", "assay": "Cell cytotoxicity (CC50)", "format": "cell-based", "settings": "mean of at least two experiments", "method_in_brief": "as §1"}, "[3]": {"settings": "IV 1 mg/kg, read-out: IV t1/2 (converted)"}, "[4]": {"settings": "PO 10 mg/kg, read-out: PO t1/2 (converted)"}, "[5]": {"settings": "human respiratory syncytial virus, HepG2, Hep-G2 cells"}},
  "note": "Where two headings read alike, the source gives them in different places.",
  "data": [
    {"molecule": "O=C(N[C@H]1N=C(c2ccccc2)c2cccc(F)c2NC1=O)c1c(-c2cncc(Cl)c2)nn2cccnc12", "note": "[Example 28, 2-(5-Chloropyridin-3-yl)-N-[(3S)-9-fluoro-2-oxo-5-phenyl-1,3-dihydro-1,4-benzodiazepin-3-yl]pyrazolo[1,5-a]pyrimidine-3-carboxamide]", "values": [
      {"measurement": "half-life at 3 μM", "setting": "in vitro [1]; dog", "value": 4, "unit": "h"},
      {"measurement": "half-life at 3 μM", "setting": "in vitro [1]; human", "value": 3.23, "unit": "h"},
      {"measurement": "half-life at 3 μM", "setting": "in vitro [1]; rat", "value": "> 3.1", "unit": "h"},
      {"measurement": "half-life at 1 μM", "setting": "in vitro [2]; dog", "value": 4.28, "unit": "h"},
      {"measurement": "half-life at 1 μM", "setting": "in vitro [2]; human", "value": 14.2, "unit": "h"},
      {"measurement": "half-life at 1 μM", "setting": "in vitro [2]; rat", "value": 44.7, "unit": "h"},
      {"measurement": "CC50", "setting": "Cell cytotoxicity (CC50)", "value": "> 25000", "unit": "nM"},
      {"measurement": "Vd", "setting": "in vivo; IV 1 mg/kg", "value": 1.8, "unit": "L/kg"},
      {"measurement": "clearance", "setting": "in vivo; IV 1 mg/kg", "value": 7.8, "unit": "mL/min/kg"},
      {"measurement": "Cmax", "setting": "in vivo", "value": 785, "unit": "ng/mL"},
      {"measurement": "half-life", "setting": "in vivo; [3]", "value": 3.1, "unit": "h"},
      {"measurement": "AUC(0-t)", "setting": "in vivo; PO 10 mg/kg", "value": 11100, "unit": "ng·h/mL"},
      {"measurement": "half-life", "setting": "in vivo; [4]", "value": 5.4, "unit": "h"},
      {"measurement": "C 8 h", "setting": "in vivo", "value": 629, "unit": "ng/mL"},
      {"measurement": "F", "setting": "in vivo; IV 1 mg/kg, PO 10 mg/kg", "value": 54, "unit": "%"},
      {"measurement": "EC50", "setting": "RSV A2; [5]", "value": 41, "unit": "nM"}
    ]},
    {"molecule": "CCc1ccc(-c2nn3cccnc3c2C(=O)N[C@H]2N=C(c3ccccc3)c3cccc(F)c3NC2=O)c(C)n1", "note": "[Example 57, 2-(6-Ethyl-2-methylpyridin-3-yl)-N-[(3S)-9-fluoro-2-oxo-5-phenyl-2,3-dihydro-1H-1,4-benzodiazepin-3-yl]pyrazolo[1,5-a]pyrimidine-3-carboxamide]", "values": [
      {"measurement": "half-life at 3 μM", "setting": "in vitro [1]; dog", "value": 43.3, "unit": "h"},
      {"measurement": "half-life at 3 μM", "setting": "in vitro [1]; human", "value": "> 3.1", "unit": "h"},
      {"measurement": "half-life at 3 μM", "setting": "in vitro [1]; rat", "value": 0.785, "unit": "h"},
      {"measurement": "half-life at 1 μM", "setting": "in vitro [2]; dog", "value": 1.38, "unit": "h"},
      {"measurement": "half-life at 1 μM", "setting": "in vitro [2]; human", "value": 1.68, "unit": "h"},
      {"measurement": "half-life at 1 μM", "setting": "in vitro [2]; rat", "value": 0.715, "unit": "h"},
      {"measurement": "CC50", "setting": "Cell cytotoxicity (CC50)", "value": "> 25000", "unit": "nM"},
      {"measurement": "Vd", "setting": "in vivo; IV 1 mg/kg", "value": 0.6, "unit": "L/kg"},
      {"measurement": "clearance", "setting": "in vivo; IV 1 mg/kg", "value": 19.2, "unit": "mL/min/kg"},
      {"measurement": "Cmax", "setting": "in vivo", "value": 912, "unit": "ng/mL"},
      {"measurement": "half-life", "setting": "in vivo; [3]", "value": 1.4, "unit": "h"},
      {"measurement": "AUC(0-t)", "setting": "in vivo; PO 10 mg/kg", "value": 3660, "unit": "ng·h/mL"},
      {"measurement": "half-life", "setting": "in vivo; [4]", "value": 2.6, "unit": "h"},
      {"measurement": "C 8 h", "setting": "in vivo", "value": 142, "unit": "ng/mL"},
      {"measurement": "F", "setting": "in vivo; IV 1 mg/kg, PO 10 mg/kg", "value": 48, "unit": "%"},
      {"measurement": "EC50", "setting": "RSV A2; [5]", "value": 56, "unit": "nM"}
    ]},
    {"molecule": "Cc1ccc2nc(-c3ccccc3)c(C(=O)N[C@H]3N=C(c4ccccc4)c4cccc(F)c4NC3=O)n2n1", "note": "[Example 93, N-[(3S)-9-Fluoro-2-oxo-5-phenyl-1,3-dihydro-1,4-benzodiazepin-3-yl]-6-methyl-2-phenylimidazo[1,2-b]pyridazine-3-carboxamide]", "values": [
      {"measurement": "half-life at 3 μM", "setting": "in vitro [1]; dog", "value": 7.42, "unit": "h"},
      {"measurement": "half-life at 3 μM", "setting": "in vitro [1]; human", "value": 4.9, "unit": "h"},
      {"measurement": "half-life at 3 μM", "setting": "in vitro [1]; rat", "value": 1.19, "unit": "h"},
      {"measurement": "half-life at 1 μM", "setting": "in vitro [2]; dog", "value": 23.7, "unit": "h"},
      {"measurement": "half-life at 1 μM", "setting": "in vitro [2]; human", "value": 34.8, "unit": "h"},
      {"measurement": "half-life at 1 μM", "setting": "in vitro [2]; rat", "value": 0.685, "unit": "h"},
      {"measurement": "CC50", "setting": "Cell cytotoxicity (CC50)", "value": "> 25000", "unit": "nM"},
      {"measurement": "EC50", "setting": "RSV A2; [5]", "value": 33, "unit": "nM"}
    ]},
    {"molecule": "Cc1ccc2nc(-c3ccc(N4CCOCC4)nc3)c(C(=O)N[C@H]3N=C(c4ccccc4)c4cccc(F)c4NC3=O)n2n1", "note": "[Example 105, N-[(3S)-9-fluoro-2-oxo-5-phenyl-1,3-dihydro-1,4-benzodiazepin-3-yl]-6-methyl-2-(6-morpholin-4-ylpyridin-3-yl)imidazo[1,2-b]pyridazine-3-carboxamide]", "values": [
      {"measurement": "CC50", "setting": "Hep-G2 cells", "value": "> 25000", "unit": "nM"},
      {"measurement": "EC50", "setting": "RSV A2; Hep-G2 cells", "value": 38, "unit": "nM"}
    ]},
    {"molecule": "COc1ccc2nc(-c3cncc(C)c3)c(C(=O)N[C@H]3N=C(c4ccccc4)c4cccc(F)c4NC3=O)n2n1", "note": "[Example 118, N-[(3S)-9-fluoro-2-oxo-5-phenyl-1,3-dihydro-1,4-benzodiazepin-3-yl]-6-methoxy-2-(5-methylpyridin-3-yl)imidazo[1,2-b]pyridazine-3-carboxamide]", "values": [
      {"measurement": "half-life at 1 μM", "setting": "in vitro [2]; dog", "value": 2.38, "unit": "h"},
      {"measurement": "half-life at 1 μM", "setting": "in vitro [2]; human", "value": 1.98, "unit": "h"},
      {"measurement": "half-life at 1 μM", "setting": "in vitro [2]; rat", "value": 0.808, "unit": "h"},
      {"measurement": "CC50", "setting": "Cell cytotoxicity (CC50)", "value": "> 25000", "unit": "nM"},
      {"measurement": "EC50", "setting": "RSV A2; [5]", "value": 59, "unit": "nM"}
    ]},
    {"molecule": "COc1ccc2nc(-c3ccncc3F)c(C(=O)N[C@H]3N=C(c4ccccc4)c4cccc(F)c4NC3=O)n2n1", "note": "[Example 119, N-[(3S)-9-fluoro-2-oxo-5-phenyl-1,3-dihydro-1,4-benzodiazepin-3-yl]-2-(3-fluoropyridin-4-yl)-6-methoxyimidazo[1,2-b]pyridazine-3-carboxamide]", "values": [
      {"measurement": "half-life at 3 μM", "setting": "in vitro [1]; dog", "value": 4.92, "unit": "h"},
      {"measurement": "half-life at 3 μM", "setting": "in vitro [1]; human", "value": "> 3.1", "unit": "h"},
      {"measurement": "half-life at 3 μM", "setting": "in vitro [1]; rat", "value": 1.97, "unit": "h"},
      {"measurement": "half-life at 1 μM", "setting": "in vitro [2]; dog", "value": 7.4, "unit": "h"},
      {"measurement": "half-life at 1 μM", "setting": "in vitro [2]; human", "value": 2.68, "unit": "h"},
      {"measurement": "half-life at 1 μM", "setting": "in vitro [2]; rat", "value": 0.863, "unit": "h"},
      {"measurement": "CC50", "setting": "Cell cytotoxicity (CC50)", "value": "> 25000", "unit": "nM"},
      {"measurement": "EC50", "setting": "RSV A2; [5]", "value": 28, "unit": "nM"}
    ]},
    {"molecule": "N-[(3S)-9-Fluoro-2-oxo-5-phenyl-l,3-dihydro-1,4-benzodiazepin-3-yl]-2-phenylpyrazolo[1,5-a]pyrimidine-3-carboxamide [Example 17]", "values": [
      {"measurement": "CC50", "setting": "Hep-G2 cells", "value": "> 25000", "unit": "nM"},
      {"measurement": "EC50", "setting": "RSV A2; Hep-G2 cells", "value": 90, "unit": "nM"}
    ]}
  ]
}
